Experimental data reported in PubChem BioAssay (NCI).
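Five compound concentrations were applied to cells in 96-well plates for 48 hours; endpoints were derived by simple linear interpolation of the resulting dose-response curve. The concentration for full growth arrest is given as TGI.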

How the values were obtained:
Test in all cases: NCI tumour cell line growth inhibition, 48 h
SNB-19 CNS = system: SNB-19 CNS
SK-MEL-5 melanoma = system: SK-MEL-5 melanoma
RXF 393 renal = system: RXF 393 renal
HOP-92 NSCLC = system: HOP-92 NSCLC
SF-268 CNS = system: SF-268 CNS
RPMI-8226 leukemia = system: RPMI-8226 leukemia
SK-OV-3 ovarian = system: SK-OV-3 ovarian
MDA-N = system: MDA-N
BT-549 breast = system: BT-549 breast
NCI/ADR-RES ovarian = system: NCI/ADR-RES ovarian
HCT-15 colon = system: HCT-15 colon
HCT-116 colon = system: HCT-116 colon
SF-539 CNS = system: SF-539 CNS
HL-60(TB) leukemia = system: HL-60(TB) leukemia
SK-MEL-2 melanoma = system: SK-MEL-2 melanoma
K-562 leukemia = system: K-562 leukemia

Structure (SMILES) | TGI (SNB-19 CNS) [µM] | TGI (SK-MEL-5 melanoma) [µM] | TGI (RXF 393 renal) [µM] | TGI (HOP-92 NSCLC) [µM] | TGI (SF-268 CNS) [µM] | TGI (RPMI-8226 leukemia) [µM] | TGI (SK-OV-3 ovarian) [µM] | TGI (MDA-N) [µM] | TGI (BT-549 breast) [µM] | TGI (NCI/ADR-RES ovarian) [µM] | TGI (HCT-15 colon) [µM] | TGI (HCT-116 colon) [µM] | TGI (SF-539 CNS) [µM] | TGI (HL-60(TB) leukemia) [µM] | TGI (SK-MEL-2 melanoma) [µM] | TGI (K-562 leukemia) [µM]
CC(=O)O[C@@H]1[C@@H](C)[C@]2(CC(c3ccoc3)OC2O)C2CCC3O[C@]3(C)[C@]2(C)[C@@H]1OC(C)=O (some centres not stated) | > 100 | 64.3 | > 100 | > 100 | > 100 | 60.7 | > 100 | > 100 | 63.1 | > 100 | > 100 | > 100 | 65.3 | 48.7 | > 100 | –
CCCC(=O)n1[nH]c(=O)n(C(C)(C)C)c1=O | > 100 | > 100 | > 100 | – | > 100 | > 100 | > 100 | > 100 | > 100 | > 100 | > 100 | > 100 | – | > 100 | > 100 | > 100
Nc1nc(NNc2ccccc2F)cc(=O)[nH]1 | > 100 | > 100 | – | – | – | > 100 | – | > 100 | > 100 | > 100 | > 100 | > 100 | > 100 | > 100 | – | > 100
Cc1ccc(O)c(-c2cc(-c3ccccc3)nc(/N=C\c3ccccc3)n2)c1 | > 100 | > 100 | – | > 100 | > 100 | – | – | > 100 | 19.2 | 85.6 | > 100 | > 100 | > 100 | > 100 | > 100 | > 100
CC(=O)N1N=C(c2ccc3ccccc3c2O)CC1c1ccc(Cl)cc1Cl (configuration not stated) | – | > 100 | > 100 | > 100 | 93.1 | > 100 | > 100 | > 100 | > 100 | > 100 | > 100 | > 100 | 50.6 | – | > 100 | > 100
c1ccc(N=C2C(=Nc3ccccc3)N(C3CCCCC3)C(=NC3CCCCC3)N2c2ccccc2)cc1 | > 100 | > 100 | > 100 | > 100 | – | > 100 | – | > 100 | > 100 | – | > 100 | > 100 | – | > 100 | > 100 | > 100
Cc1ccc(N(C)S(=O)(=O)c2ccccc2)cc1 | > 100 | > 100 | > 100 | – | > 100 | > 100 | > 100 | > 100 | > 100 | > 100 | > 100 | > 100 | > 100 | – | > 100 | > 100
O=C(/C=C/c1cc(F)ccc1F)OCCc1ccccc1 | > 100 | > 100 | > 100 | > 100 | > 100 | > 100 | – | > 100 | > 100 | > 100 | > 100 | > 100 | > 100 | 79.9 | > 100 | > 100
COC(=O)C(=O)c1cc2ccccc2n1S(=O)(=O)c1ccccc1 | > 100 | > 100 | > 100 | > 100 | > 100 | – | > 100 | > 100 | > 100 | > 100 | > 100 | > 100 | > 100 | > 100 | > 100 | > 100
Cc1cc(O)c2c(c1)C(=O)C=C(Br)C2=O | > 100 | 27.4 | – | 27 | 98.9 | 23 | > 100 | 28.7 | 30.6 | 43.1 | 27.4 | 30.8 | 29.8 | 1.71 | 31.2 | 3.38
O=C(OCC(Cl)(Cl)Cl)N1CC[C@@H](C2CCCCC2)C1 | 38.6 | 36.6 | 37.1 | – | 34.3 | – | > 100 | > 100 | > 100 | 32.9 | 35.9 | 80.7 | – | – | 33.1 | 50.1
Cc1ccc(S(=O)(=O)N/N=C2/C3C(CC2(C)C)C2(C)CCCC3(C)C2O)cc1 (configuration not stated) | 96.5 | 28.8 | – | 33.3 | > 100 | > 100 | 44.8 | 37.9 | 31 | 94.6 | 60 | 33.9 | – | > 100 | 45.8 | > 100
CCOC(=O)C1=COC(C)(C)CC1=O | > 100 | > 100 | > 100 | – | > 100 | > 100 | > 100 | > 100 | > 100 | > 100 | > 100 | > 100 | > 100 | – | > 100 | > 100
Clc1cc2nnn(C3CCCCO3)c2cc1Cl (configuration not stated) | > 100 | > 100 | > 100 | – | > 100 | > 100 | > 100 | > 100 | > 100 | > 100 | > 100 | > 100 | > 100 | – | > 100 | > 100
O=C1NC(=O)/C(=C/c2ccc(S(=O)(=O)N/N=C/c3ccccc3)cc2)N1 | > 100 | > 100 | > 100 | > 100 | > 100 | > 100 | > 100 | > 100 | > 100 | > 100 | > 100 | > 100 | – | > 100 | > 100 | > 100
Cn1c2c(c3ccccc31)CC(=O)N1CCCC(C1)CC21OCCO1 (configuration not stated) | > 100 | > 100 | > 100 | > 100 | > 100 | > 100 | > 100 | > 100 | > 100 | > 100 | > 100 | > 100 | – | > 100 | > 100 | > 100
